Measured values: paper PMC7083565, “In vitro metabolism, reaction phenotyping, enzyme kinetics, CYP inhibition and induction potential of ataluren” (Pharmacology Research & Perspectives, 2020)

Assays:
CYP2B6 = test: CYP induction in primary human hepatocytes: CYP2B6; format: in vitro ADME; details: Bupropion-hydroxylase, 48 hours, n=3
Method: Human hepatocytes isolated from three Caucasian males were transferred to 48‐well collagen‐coated plates at 0.14 × 10^6 cells/well in planting media for attachment. After attachment, planting media was replaced with sandwich media and the cells were incubated until clusters were established. […] The incubation solutions were aspirated and replaced with freshly prepared incubation solutions containing ataluren for an additional 24 hours. […] The incubation solutions were then aspirated and 150 µL of K‐H buffer containing CYP substrates were added. The hepatocytes were incubated for 30 minutes for CYP2C8 (10 µmol/L amodiaquine), 1 hour for CYP3A4 (125 µmol/L testosterone), and 4 hours for CYPs 1A2 (100 µmol/L phenacetin), 2A6 (100 µmol/L coumarin), 2B6 (150 µmol/L bupropion), 2C9 (50 µmol/L tolbutamide), 2C19 (100 µmol/L S‐mephenytoin), and 2E1 (300 µmol/L chlorzoxazone) activity assays. The reactions were stopped by the addition of 0.15 mL of ice‐cold methanol except that coumarin‐treated cells were incubated with β‐glucuronidase and aryl sulfatase for additional 1 hour to free 7‐hydroxycoumarin before the addition of 0.2 mL of ice‐cold methanol. Metabolite formation in incubations with test compounds and control inhibitors was assessed with validated LC‐MS/MS methods for each of the reaction products as described in Table S2. Enzymatic activity for each CYP was calculated using the absolute amount of metabolite formed (pmol) divided by hepatocytes in the incubation (million cells) and the incubation time (minute). The relative fold induction in enzymatic activity was calculated by comparing the rate of metabolite formation for treatment groups to that of the solvent control group (reported as vehicle control%) or positive control group (reported as positive control%).

[1] = Glucuronidation in pooled human kidney microsomes; format: in vitro ADME; details: kidney microsomes 1 mg protein/mL, 10 μmol/L, 60 minutes, n = 1
Method: Ataluren at 10 μmol/L, was incubated (n = 1) with pooled human intestinal, lung, and kidney microsomes (1 mg protein/mL, preactivated with alamethicin) to evaluate if ataluren‐O‐1β‐acyl glucuronide will be formed in these extrahepatic tissues. Incubation mixtures and procedures were essentially the same as the above. The supernatant fractions were analyzed by LC‐MS/MS to quantify the formation of ataluren‐O‐1β‐acyl glucuronide and the loss of ataluren. Detailed LC‐MS/MS conditions are summarized in LC‐MS/MS Analysis section. […] The ataluren acyl glucuronide formation rate after 60 minutes incubation was calculated using the amount of metabolite formed (pmol) divided by the protein amount in the incubation sample ([…]) and the incubation time (60 minutes).
Quantification of ataluren loss and ataluren‐O‐1β‐acyl glucuronide formation was carried out with an LC‐MS/MS system, which consisted of two Shimadzu LC‐10ADvp pumps, a SPD10‐AVP UV/Vis detector, a Shimadzu SILHTA autosampler, a Shimadzu DGU‐14A degasser, and a Sciex API 4000 QTRAP mass spectrometer equipped with a Turbo Ionspray ionization source that operated in positive ionization mode. […] Ion transitions monitored were at m/z 285 → m/z 123 for ataluren, m/z 461 → m/z 285 for ataluren acyl glucuronide, and m/z 289 → m/z 127 for ataluren‐D4 (internal standard), respectively.

O=C(O)c1cccc(-c2noc(-c3ccccc3F)n2)c1 [ataluren, Ataluren]
Positive control %, Mean (CYP2B6; ataluren 4 µM): 2.81% | Vehicle control %, Mean (CYP2B6; ataluren 4 µM): 111% | Positive control %, Mean (CYP2B6; ataluren 40 µM): 6.27% | Vehicle control %, Mean (CYP2B6; ataluren 40 µM): 123% | Positive control %, Mean (CYP2B6; ataluren 400 µM): 19.8% | Vehicle control %, Mean (CYP2B6; ataluren 400 µM): 170% | ataluren loss [1]: 94.3%
